Data: PMC8455565 (Scientific Reports, 2021)

Columns and labels:
BTK [1] = biological target: T1, BTK (Homo sapiens, UniProt Q06187); assay: BTK occupancy in whole blood ex vivo; assay type: cell-based; set-up: from tissue; host or cells: whole blood
NK cells (LPS) = assay: High-dimensional phosphorylation analysis, NK cells (LPS); assay type: cell-based, human; conditions: 30 µM, 60'
BTK [2] = biological target: T1, BTK; assay: Phase I BTK occupancy (free BTK ELISA) in PBMCs of healthy volunteers; assay type: in vivo; set-up: endogenous in cells; host or cells: PBMCs of healthy volunteers
Protocol: PK/PD data from 24 subjects who had received the drug BID among the 90 total subjects who participated in the MAD study were analyzed. Blood was collected on day 1 before drug administration and 1 h, 2 h, 4 h, and 12 h after drug administration. Blood samples were taken 3 days and 2 h after drug administration. Additional blood samples were taken on day 6 (5, 20, and 60 mg/kg), day 15 (40 mg/kg), day 17, and day 21 for PK/PD analysis.
(§1) The BTK occupancy assay and analysis of BTK phosphorylation inhibition were performed as described previously. Briefly, isolated PBMCs were lysed with RIPA buffer (R0278, Sigma-Aldrich) containing 1 × protease/phosphatase inhibitor (1861281, Thermo Fisher Scientific) and EDTA (1861274, Thermo Fisher Scientific). The supernatants were collected by 10 min at 14,000 × g in microcentrifuge at 4 °C and biotinylated probe was added to bind free BTK for 1 h. Rabbit anti-BTK Ab (1:5000 in 1% BSA) bound the captured BTK/probe complex, and was detected with […] antibody conjugated with HRP then ultra-TMB solution was added to each well for the free BTK analysis. Analysis of free and total BTK levels for the phase I study was conducted by Cambridge Biomedical Inc. (MA, USA). BTK occupancy was calculated by taking the free BTK and total BTK results from a given donor and used the following formula: %BTKoccupancy=100%-FreeBTK/totalBTK×100.

BTK [3] = biological target: T2, BTK (Rattus norvegicus, UniProt Q5S255); assay: BTK occupancy and BTK phosphorylation in CIA model rats (PD); assay type: in vivo; conditions: for correlation coefficient, arthritis score vs BTK occupancy: negative correlation; for correlation coefficient, clinical arthritis score vs BTK phosphorylation: positive correlation
T2 construct: endogenous in cells; host or cells: rat PBMCs (normal rats in vitro; CIA model rats ex vivo)
Protocol: as §1
For analysis of BTK phosphorylation inhibition, the relative percentage of phosphorylated BTK was calculated by the following equation: phospho-BTK level / total BTK level × 100. The results are presented as the mean percentage ± S.D.
Figure 5 Pharmacologic inhibition of BTK and its correlation with efficacy. (A,B) Whole blood was collected from the CIA-induced rats at the 0, 4, 12, 24 h after final drug administration, and then PBMCs and plasma were isolated. BTK phosphorylation was detected by immunoblotting and normalized to the total BTK level, and BTK occupancy was measured by ELISA using a biotinylated probe as described in the Materials and Methods. […] Full-length blots are presented in Supplementary Fig. 1. (C) Correlations between drug efficacy (clinical arthritis score) and the PD markers BTK phosphorylation percentage (left)/drug efficacy and BTK occupancy percentage (right). Linear regression was performed by using GraphPad Prism 6. The data are presented as the mean ± S.D.

B cells (IgM+CD40L) = assay: High-dimensional phosphorylation analysis, B cells (IgM+CD40L); assay type: cell-based, human
Protocol: (§2) The analysis measured 94 intracellular signaling nodes (81 phosphorylation sites, 10 total protein levels and 3 methylation/acetylation sites) in stimulated immune cells, including B cells (IgM plus CD40L), CD4 + and CD8 + T cells (IL-2; CD3 plus CD28), monocytes (M-CSF), NK cells (IL-2), and granulocytes (LPS).

BTK [4] = biological target: T2, BTK; assay: BTK occupancy molecular probe assay in rat PBMCs; assay type: cell-based; conditions: 1 h treatment, biotinylated probe; read-out: IC50, BTK target modulation (occupancy) in rat PBMCs
Protocol: as §1
BTK occupancy (%) was calculated from the free BTK percentage, which was compared with that of the untreated control group. […] Bone erosion ( →) was quantified a subchondral and bone destruction and synovitis (*) was scored degree of pannus formation, including synovial inflammation, hypertrophy, interstitial edema, and fibrosis (H&E). Cartilage damage (□) was semiquantitatively scored as an intensity of Safranin-O staining (red). […]

CD4+ Memory (CD3+CD28) = assay: High-dimensional phosphorylation analysis, CD4+ Memory (CD3+CD28); assay type: cell-based, human; conditions: 30 µM, 5'
Protocol: as §2

CD8+ Memory (CD3+CD28) = assay: High-dimensional phosphorylation analysis, CD8+ Memory (CD3+CD28); assay type: cell-based, human; conditions: 30 µM, 5'
Protocol: as §2

[5] = 30 μM, all time points (2, 5, 15, 60 min)

T1 sequence (Q06187 whole entry): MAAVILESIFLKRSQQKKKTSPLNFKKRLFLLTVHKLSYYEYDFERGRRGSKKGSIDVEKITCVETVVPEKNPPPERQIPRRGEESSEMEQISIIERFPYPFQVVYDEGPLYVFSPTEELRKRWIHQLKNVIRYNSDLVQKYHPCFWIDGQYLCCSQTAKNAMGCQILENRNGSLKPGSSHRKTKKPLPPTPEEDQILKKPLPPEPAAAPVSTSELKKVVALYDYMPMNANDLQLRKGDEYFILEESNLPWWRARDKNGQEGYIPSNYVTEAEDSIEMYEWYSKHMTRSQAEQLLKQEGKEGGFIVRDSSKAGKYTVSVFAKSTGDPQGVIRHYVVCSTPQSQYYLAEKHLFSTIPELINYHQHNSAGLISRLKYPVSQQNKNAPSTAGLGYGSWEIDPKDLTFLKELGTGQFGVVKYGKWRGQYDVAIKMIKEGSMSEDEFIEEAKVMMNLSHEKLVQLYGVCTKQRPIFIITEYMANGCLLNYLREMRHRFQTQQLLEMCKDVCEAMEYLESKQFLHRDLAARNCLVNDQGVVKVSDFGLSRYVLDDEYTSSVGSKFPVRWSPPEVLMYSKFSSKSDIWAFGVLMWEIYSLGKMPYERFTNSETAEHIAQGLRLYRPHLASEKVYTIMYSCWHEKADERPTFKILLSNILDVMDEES
T2 sequence (Q5S255 1-660): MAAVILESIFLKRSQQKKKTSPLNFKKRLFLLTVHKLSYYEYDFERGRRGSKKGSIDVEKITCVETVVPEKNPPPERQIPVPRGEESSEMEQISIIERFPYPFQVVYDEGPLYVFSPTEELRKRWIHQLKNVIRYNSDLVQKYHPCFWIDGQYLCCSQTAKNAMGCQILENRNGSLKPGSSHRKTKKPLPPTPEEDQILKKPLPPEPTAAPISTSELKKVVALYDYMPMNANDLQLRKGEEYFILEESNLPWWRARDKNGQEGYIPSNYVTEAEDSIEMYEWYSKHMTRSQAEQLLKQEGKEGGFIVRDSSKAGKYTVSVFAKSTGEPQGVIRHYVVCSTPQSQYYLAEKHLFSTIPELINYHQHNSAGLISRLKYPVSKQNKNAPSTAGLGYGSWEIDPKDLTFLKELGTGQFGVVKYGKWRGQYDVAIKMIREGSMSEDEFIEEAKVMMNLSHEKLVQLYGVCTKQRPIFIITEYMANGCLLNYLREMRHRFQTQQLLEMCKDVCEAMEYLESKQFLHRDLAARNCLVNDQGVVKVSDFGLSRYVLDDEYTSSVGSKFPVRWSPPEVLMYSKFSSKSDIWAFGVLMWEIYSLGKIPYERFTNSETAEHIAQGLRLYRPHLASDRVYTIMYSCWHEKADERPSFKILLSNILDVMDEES

SMILES: C=CC(=O)Nc1cccc(Oc2nc(Nc3ccc(N4CCN(C)CC4)cc3)nc3ccoc23)c1 [Poseltinib]
- IC50 (BTK [1]): 160 nM
- AKT1 phosphorylation, Log2Ratio Stim/Control (NK cells (LPS)): 0.44
- Akt phosphorylation, Log2Ratio Stim/Control (NK cells (LPS)): 0.54
- BTK phosphorylation, Log2Ratio Stim/Control (NK cells (LPS)): -0.04
- GSK3B phosphorylation, Log2Ratio Stim/Control (NK cells (LPS)): 0.91
- MAP2K1 phosphorylation, Log2Ratio Stim/Control (NK cells (LPS)): 0.51
- MNK phosphorylation, Log2Ratio Stim/Control (NK cells (LPS)): 0.07
- P38 phosphorylation, Log2Ratio Stim/Control (NK cells (LPS)): 0.36
- RPS6 phosphorylation, Log2Ratio Stim/Control (NK cells (LPS)): 0.30
- SMAD2 phosphorylation, Log2Ratio Stim/Control (NK cells (LPS); first SMAD2 line): 0.67
- SMAD2 phosphorylation, Log2Ratio Stim/Control (NK cells (LPS); second SMAD2 line): 0.07
- time of maximum BTK inhibition (BTK [2]; 40 mg): 12 h
- BTK occupancy (BTK [2]; 40 mg dosing, maintained up to 48 h after the first dose): More than 80%
- time of maximum BTK inhibition (BTK [2]; 60 mg): 4 h
- BTK inhibition (BTK [2]; 4 h after the first dose, doses of 40 mg and higher): > 90%
- inhibition at 20 mg (BTK [2]; human, steady state (120 h), doses of 20 mg bid and higher): > 90%
- BTK occupancy (BTK [3]; 3 mg/kg, 4 h after the last administration): full BTK occupancy
- BTK occupancy (BTK [3]; 3 mg/kg, at 12 and 24 h): completely occupied
- BTK occupancy (BTK [3]; 0.3 and 1 mg/kg, 4 h after the last administration): partial BTK occupancy
- BTK phosphorylation (BTK [3]; 0.3 and 1 mg/kg, at 12 and 24 h): partially inhibited
- correlation coefficient, arthritis score vs BTK occupancy (BTK [3]; 4 h): 0.8003
- correlation coefficient, clinical arthritis score vs BTK phosphorylation (BTK [3]; 4 h): 0.6750
- correlation coefficient, arthritis score vs BTK occupancy (BTK [3]; 12 h): 0.8757
- correlation coefficient, clinical arthritis score vs BTK phosphorylation (BTK [3]; 12 h): 0.7795
- correlation coefficient, arthritis score vs BTK occupancy (BTK [3]; 24 h): 0.8528
- correlation coefficient, clinical arthritis score vs BTK phosphorylation (BTK [3]; 24 h): 0.8603
- Akt phosphorylation, Log2Ratio Stim/Control (B cells (IgM+CD40L); 30 µM, 5'): -0.97
- BTK phosphorylation, Log2Ratio Stim/Control (B cells (IgM+CD40L); 30 µM, 5'): 0.06
- CREB1 phosphorylation, Log2Ratio Stim/Control (B cells (IgM+CD40L); 30 µM, 5'): 1.74
- MAPK3 phosphorylation, Log2Ratio Stim/Control (B cells (IgM+CD40L); 30 µM, 5'): 1.30
- PLCγ2 phosphorylation, Log2Ratio Stim/Control (B cells (IgM+CD40L); 30 µM, 5'): 0.82
- RPS6KA1 phosphorylation, Log2Ratio Stim/Control (B cells (IgM+CD40L); 30 µM, 5'): 1.13
- RPS6 phosphorylation, Log2Ratio Stim/Control (B cells (IgM+CD40L); 30 µM, 5'): 1.35
- SAPK/JNK phosphorylation, Log2Ratio Stim/Control (B cells (IgM+CD40L); 30 µM, 5'): 0.82
- SLP76 phosphorylation, Log2Ratio Stim/Control (B cells (IgM+CD40L); 30 µM, 5'): 0.86
- WIPF1 phosphorylation, Log2Ratio Stim/Control (B cells (IgM+CD40L); 30 µM, 5'): 1.81
- phosphorylation of AKT (S473) (B cells (IgM+CD40L); [5]): inhibited
- phosphorylation of BTK (Y223) (B cells (IgM+CD40L); [5]): inhibited
- phosphorylation of PLCγ2 (Y759) (B cells (IgM+CD40L); [5]): inhibited
- IC50 (BTK [4]): 14.6 ± 3.3 nM
- BTK phosphorylation, Log2Ratio Stim/Control (CD4+ Memory (CD3+CD28)): 1.21
- CD247 phosphorylation, Log2Ratio Stim/Control (CD4+ Memory (CD3+CD28)): 2.86
- CrkL phosphorylation, Log2Ratio Stim/Control (CD4+ Memory (CD3+CD28)): 1.63
- LCK phosphorylation, Log2Ratio Stim/Control (CD4+ Memory (CD3+CD28)): 1.51
- PLCγ2 phosphorylation, Log2Ratio Stim/Control (CD4+ Memory (CD3+CD28)): 2.43
- PTK2B phosphorylation, Log2Ratio Stim/Control (CD4+ Memory (CD3+CD28)): 0.93
- SLP76 phosphorylation, Log2Ratio Stim/Control (CD4+ Memory (CD3+CD28)): 1.63
- Src phosphorylation, Log2Ratio Stim/Control (CD4+ Memory (CD3+CD28)): 0.82
- ZAP70 phosphorylation, Log2Ratio Stim/Control (CD4+ Memory (CD3+CD28)): 1.22
- BTK phosphorylation, Log2Ratio Stim/Control (CD8+ Memory (CD3+CD28)): 1.34
- CrL phosphorylation, Log2Ratio Stim/Control (CD8+ Memory (CD3+CD28)): 1.59
- HS1 phosphorylation, Log2Ratio Stim/Control (CD8+ Memory (CD3+CD28)): 0.56
- LCK phosphorylation, Log2Ratio Stim/Control (CD8+ Memory (CD3+CD28)): 1.52
- PLCγ2 phosphorylation, Log2Ratio Stim/Control (CD8+ Memory (CD3+CD28)): 2.55
- RPS6KA1 phosphorylation, Log2Ratio Stim/Control (CD8+ Memory (CD3+CD28)): 0.47
- SRC phosphorylation, Log2Ratio Stim/Control (CD8+ Memory (CD3+CD28)): 0.80
- WIPF1 phosphorylation, Log2Ratio Stim/Control (CD8+ Memory (CD3+CD28)): 0.82
- ZAP70 phosphorylation, Log2Ratio Stim/Control (CD8+ Memory (CD3+CD28)): 1.33
